In brackets after ≈: the same amount, converted by molar mass. Activity calls are given as the source filed them. The calls are words filed in the database; no cut-off is given here.

Assay [1] has as its system A2058. Briefly: Cytotoxicity against human A2058 cells after 72 hrs by MTT assay. Format: functional, cell-based. (In general: Tetrazolium dyes change colour on reduction, which living cells bring about.)
The subject of assay [2] is MIA PaCa-2. Description: Cytotoxicity against human MIA PaCa-2 cells after 72 hrs by MTT assay. Format: functional, cell-based.
The test system of assay [3] is Staphylococcus aureus. Description: Antibacterial activity against methicillin-sensitive Staphylococcus aureus ATCC 29213 assessed as inhibition of bacterial growth. It counts as functional.
Assay [4] relates to HepG2. Briefly: Cytotoxicity against human HepG2 cells after 72 hrs by MTT assay. Format: functional, cell-based.
Assay [5] deals with Escherichia coli. Briefly: Antibacterial activity against Escherichia coli ATCC 25922 assessed as inhibition of bacterial growth. Format: functional.
Assay [6] has as its system Klebsiella pneumoniae. Briefly: Antibacterial activity against Klebsiella pneumoniae ATCC 700603 assessed as inhibition of bacterial growth. Format: functional.
In assay [7] the test system is Staphylococcus aureus. Description: Antibacterial activity against methicillin-resistance Staphylococcus aureus MB5393 assessed as inhibition of bacterial growth. Format: functional.
Assay [8] concerns MCF7. Description: Cytotoxicity against human MCF7 cells after 72 hrs by MTT assay. Format: functional, cell-based.
The subject of assay [9] is HL-60. Description: Cytotoxicity against human HL-60 cells after 72 hrs by CCK-8 assay. Format: functional, cell-based.
In assay [10] the test system is A549. Briefly: Cytotoxicity against human A549 cells after 72 hrs by MTT assay. It counts as functional, cell-based.

By MIC is commonly meant the lowest concentration found to suppress growth. Turning to `CCCCC[C@H](O)[C@@H](O)C[C@H]1OC(=O)c2c(O)ccc(CC=C(C)C)c21`, the outcome in assay [1], in [2], in [4], in assay [8], in assay [9] and in assay [10] was inactive. For the same compound, the MIC in assay [3], in [5], in assay [6] and in assay [7] was over 64 µg/mL in each case.
With `CCCCC[C@H](O)C(=O)C[C@H]1OC(=O)c2c(O)ccc(CC=C(C)C)c21`, the outcome in [1], in [2], in assay [4], in assay [8], in assay [9] and in assay [10] was inactive. Further, the MIC in assay [3], in assay [5], in assay [6] and in assay [7] was over 64 µg/mL in each case.
For the compound `CCCCCC(=O)[C@]1(O)C=Cc2c(CC=C(C)C)ccc(O)c2[C@H]1O`, the result in assay [1], in [2], in assay [4], in assay [8], in assay [9] and in assay [10] was inactive. Further, the MIC in [3], in [5], in assay [6] and in assay [7] was over 64 µg/mL throughout.
Regarding `CCCCCC(=O)[C@@]1(O)C=Cc2c(CC=C(C)C)ccc(O)c2[C@@H]1O`, the outcome in assay [1], in assay [2], in assay [4], in [8], in assay [9] and in [10] was inactive. For the same compound, the MIC in assay [3], in assay [5], in assay [6] and in assay [7] was over 64 µg/mL throughout.
Regarding `CCCCC/C=C/C=C/c1cccc(O)c1CO`, the result in [1], in assay [2], in assay [4], in assay [5], in assay [6] and in [8] was inactive. Also, the outcome in assay [9] and in assay [10] was inactive. The MIC in assay [3] and in assay [7] was 48 µg/mL (≈ 195 µM) throughout.
For the compound `CCCCC[C@H](O)C(=O)C[C@@H]1OC(=O)c2c(O)ccc(CC=C(C)C)c21`, the outcome in assay [1], in assay [2], in assay [4], in assay [8], in [9] and in assay [10] was inactive. The MIC in assay [3], in assay [5], in [6] and in [7] was over 64 µg/mL each time.
Regarding `CCCCC[C@H](O)[C@@H](O)C[C@@H]1OCc2c(O)ccc(CC=C(C)C)c21`, the outcome in assay [1], in [2], in [4], in [8], in assay [9] and in [10] was inactive. Also, the MIC in assay [3], in assay [5], in assay [6] and in [7] was over 64 µg/mL throughout.

The values are drawn from ChEMBL document CHEMBL4819039, “Taxonomy Driven Discovery of Polyketides from Aspergillus californicus” (2021).
